# In patent publication US10829478B2, “5-[3-[piperazin-1-yl]-3-oxo-propyl]-imidazolidine-2,4-dione derivatives as ADAMTS 4 and 5 inhibitors for treating e.g. osteoarthritis” (Galapagos NV, priority 2016, dated 2020):
# Experiments:
# human ADAMTS4 [1] = molecular target: T1, human ADAMTS4 (Homo sapiens (Human), UniProt O75173); test: hADAMTS-4 TBIS-1 cleavage assay, Protocol 1; assay type: biochemical; settings: 60 min at room temperature, read-out: ADAMTS4 potency IC50
# Experimental: (§2) The reaction is initiated by adding to the assay plate TBIS-1 (10 μL, 4.5 μM, Anaspec) in the same buffer.
# Finally, the fluorescence is read on the Envision (Perkin Elmer) after an incubation of 60 min at room temperature (Excitation 485 nm, emission 535).
# human TACE = human TACE (Homo sapiens (Human), UniProt P78536); test: biochemical
# Sequence of human TACE (P78536 215-671): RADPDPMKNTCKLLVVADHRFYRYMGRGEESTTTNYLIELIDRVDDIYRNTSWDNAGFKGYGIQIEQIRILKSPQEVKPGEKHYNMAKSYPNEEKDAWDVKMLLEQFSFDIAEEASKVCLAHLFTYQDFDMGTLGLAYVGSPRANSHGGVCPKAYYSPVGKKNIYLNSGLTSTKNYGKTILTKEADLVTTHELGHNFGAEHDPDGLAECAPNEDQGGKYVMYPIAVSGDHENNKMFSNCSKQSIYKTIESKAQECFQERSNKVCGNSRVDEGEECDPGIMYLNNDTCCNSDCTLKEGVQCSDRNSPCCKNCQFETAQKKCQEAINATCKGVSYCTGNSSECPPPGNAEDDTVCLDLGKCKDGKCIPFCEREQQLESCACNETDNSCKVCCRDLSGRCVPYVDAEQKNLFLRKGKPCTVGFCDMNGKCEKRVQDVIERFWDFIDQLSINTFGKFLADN
# Experimental: Finally, the fluorescence is read on the Envision (Perkin Elmer) after an incubation of 75 min at room temperature (Excitation 485 nm, Emission 530).
# human ADAMTS-5 [2] = molecular target: T2, human ADAMTS-5 (Homo sapiens (Human), UniProt Q9UNA0); test: hADAMTS-5 TBIS-1 cleavage assay, Protocol 2; assay type: biochemical; settings: 45 min at 37° C., read-out: ADAMTS5 potency IC50
# T2 sequence (Q9UNA0 262-930): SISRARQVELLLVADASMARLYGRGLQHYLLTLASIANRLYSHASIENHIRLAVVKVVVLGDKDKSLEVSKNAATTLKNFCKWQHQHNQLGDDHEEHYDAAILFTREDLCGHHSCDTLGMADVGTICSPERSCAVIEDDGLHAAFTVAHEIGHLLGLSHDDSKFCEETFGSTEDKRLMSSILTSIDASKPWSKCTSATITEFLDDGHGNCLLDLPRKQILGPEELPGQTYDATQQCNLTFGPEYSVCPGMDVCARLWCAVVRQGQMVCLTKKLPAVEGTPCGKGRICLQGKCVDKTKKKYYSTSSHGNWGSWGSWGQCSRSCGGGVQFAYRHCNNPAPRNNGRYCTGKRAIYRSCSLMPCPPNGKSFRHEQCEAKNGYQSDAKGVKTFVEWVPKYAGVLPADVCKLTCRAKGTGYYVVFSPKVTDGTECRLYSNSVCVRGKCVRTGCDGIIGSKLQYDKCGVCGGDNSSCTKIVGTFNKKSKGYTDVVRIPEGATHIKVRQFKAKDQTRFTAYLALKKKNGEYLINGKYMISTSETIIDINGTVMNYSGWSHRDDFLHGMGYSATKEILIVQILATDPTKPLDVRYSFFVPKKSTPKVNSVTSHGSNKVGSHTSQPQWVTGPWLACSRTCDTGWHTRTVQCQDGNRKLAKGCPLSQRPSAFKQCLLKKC
# human ADAMTS6 = human ADAMTS6 (Homo sapiens (Human), UniProt Q9UKP5); test: hADAMTS-6 fluorescent based protease assay (520 MMP FRET substrate XII); assay type: biochemical; settings: 37° C. for 2 h; read-out: hADAMTS-6 potency IC50
# Sequence of human ADAMTS6 (Q9UKP5 other isoform, or with tags, fused parts or gaps): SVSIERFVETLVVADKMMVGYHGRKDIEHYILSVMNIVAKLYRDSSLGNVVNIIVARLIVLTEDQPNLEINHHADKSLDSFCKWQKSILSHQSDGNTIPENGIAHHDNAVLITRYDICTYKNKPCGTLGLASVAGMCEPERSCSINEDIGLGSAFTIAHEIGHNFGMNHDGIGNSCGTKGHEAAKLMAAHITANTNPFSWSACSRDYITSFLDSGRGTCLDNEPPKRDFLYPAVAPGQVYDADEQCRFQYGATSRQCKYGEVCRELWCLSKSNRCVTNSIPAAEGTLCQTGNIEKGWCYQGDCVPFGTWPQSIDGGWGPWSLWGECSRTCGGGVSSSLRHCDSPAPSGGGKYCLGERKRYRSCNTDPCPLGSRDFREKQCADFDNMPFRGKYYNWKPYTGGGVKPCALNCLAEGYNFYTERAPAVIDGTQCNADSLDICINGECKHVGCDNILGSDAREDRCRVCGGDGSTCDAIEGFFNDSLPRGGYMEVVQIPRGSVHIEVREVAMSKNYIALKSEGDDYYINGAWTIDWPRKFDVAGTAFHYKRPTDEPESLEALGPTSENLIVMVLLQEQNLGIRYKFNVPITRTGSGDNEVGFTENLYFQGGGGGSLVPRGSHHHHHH
# In short: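 ADAMTS6 (0.73 nM final) in 25 mM Tris pH 8.0, 0.05% CHAPS, 2.5 mM CaCl2 with compound dilution series (top 20 μM, 1/5 steps). Reaction started with 520 MMP FRET Substrate XII, incubated 2 h at 37 °C. Substrate cleavage read by fluorescence ex485/em530; IC50 determined.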
# rnADAMTS-5 (1-564-6H) = rnADAMTS-5 (1-564-6H) (Rattus norvegicus (Rat), UniProt Q6TY19); test: Rat ADAMTS-5 TBIS-1 cleavage assay; assay type: biochemical; settings: 120 min at 37° C.; read-out: Rat ADAMTS-5 potency IC50
# Sequence of rnADAMTS-5 (1-564-6H) (Q6TY19 entry or part of it): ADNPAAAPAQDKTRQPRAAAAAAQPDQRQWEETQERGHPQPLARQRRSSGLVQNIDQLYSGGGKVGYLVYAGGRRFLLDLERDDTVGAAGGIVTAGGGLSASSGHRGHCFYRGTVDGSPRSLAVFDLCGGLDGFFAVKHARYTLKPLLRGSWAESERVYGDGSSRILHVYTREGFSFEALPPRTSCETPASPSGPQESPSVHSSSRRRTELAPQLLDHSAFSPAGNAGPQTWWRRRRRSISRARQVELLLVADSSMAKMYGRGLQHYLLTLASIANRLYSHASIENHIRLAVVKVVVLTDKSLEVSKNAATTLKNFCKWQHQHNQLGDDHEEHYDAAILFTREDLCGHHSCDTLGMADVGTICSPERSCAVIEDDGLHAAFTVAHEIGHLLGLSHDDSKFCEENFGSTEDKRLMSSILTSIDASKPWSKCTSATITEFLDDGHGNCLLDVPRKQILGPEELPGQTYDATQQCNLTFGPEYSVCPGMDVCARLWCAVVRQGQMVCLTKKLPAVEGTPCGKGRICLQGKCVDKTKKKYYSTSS
# human ADAMTS4 [3] = molecular target: T1, human ADAMTS4; test: hADAMTS-4 TBIS-1 cleavage assay, Protocol 2; assay type: biochemical
# human MMP13 [4] = molecular target: T3, human MMP13 (Homo sapiens (Human), UniProt P45452); test: hMMP13 assay, Protocol 1 (390 MMP FRET Substrate I, Chemicon enzyme); assay type: biochemical; settings: Protocol 1, human MMP13 (Chemicon), read-out: hMMP-13 potency IC50
# Experimental: (§1) Human MMP13 is preactivated by incubated the enzyme in the same buffer complemented with 1 mM freshly prepared p-Aminophenylmercuric acetate (AMPA) for 1 h at 37° C.
# human ADAMTS-5 [5] = molecular target: T2, human ADAMTS-5; test: hADAMTS-5 TBIS-1 cleavage assay, Protocol 3; assay type: biochemical; settings: 90 min at 37° C., read-out: hADAMTS-5 potency IC50
# Experimental: as §2
# Finally, the fluorescence is read on the Envision (Perkin Elmer) after an incubation of 90 min at 37° C. (Excitation 485 nm, emission 530).
# human MMP14 = human MMP14 (Homo sapiens (Human), UniProt P50281); test: hMMP14 assay (390 MMP FRET Substrate I); assay type: biochemical; settings: human MMP14 (Biomol), read-out: hMMP-14 potency IC50
# Experimental: The basis for the assay is the cleavage of the substrate 390 MMP FRET Substrate I (Anaspec Cat #AS-27076) by human MMP14 (Biomol, Cat #SE-259).
# The reaction is initiated by adding to the assay plate 390 MMP FRET Substrate I (10 μL, 2.5 μM) in the same buffer.
# Finally, the fluorescence is read on the Envision (Perkin Elmer) after an incubation of 60 min at room temperature (Excitation 485 nm, Emission 530).
# human MMP13 [6] = molecular target: T3, human MMP13; test: hMMP13 assay, Protocol 2 (390 MMP FRET Substrate I, Enzo enzyme); assay type: biochemical; settings: Protocol 2, human MMP13 (Enzo Life Sciences), read-out: hMMP-13 potency IC50
# Experimental: as §1
# [7] = Protocol 2, 180 min at 37° C., read-out: ADAMTS4 potency IC50
# T1 sequence (O75173 213-837): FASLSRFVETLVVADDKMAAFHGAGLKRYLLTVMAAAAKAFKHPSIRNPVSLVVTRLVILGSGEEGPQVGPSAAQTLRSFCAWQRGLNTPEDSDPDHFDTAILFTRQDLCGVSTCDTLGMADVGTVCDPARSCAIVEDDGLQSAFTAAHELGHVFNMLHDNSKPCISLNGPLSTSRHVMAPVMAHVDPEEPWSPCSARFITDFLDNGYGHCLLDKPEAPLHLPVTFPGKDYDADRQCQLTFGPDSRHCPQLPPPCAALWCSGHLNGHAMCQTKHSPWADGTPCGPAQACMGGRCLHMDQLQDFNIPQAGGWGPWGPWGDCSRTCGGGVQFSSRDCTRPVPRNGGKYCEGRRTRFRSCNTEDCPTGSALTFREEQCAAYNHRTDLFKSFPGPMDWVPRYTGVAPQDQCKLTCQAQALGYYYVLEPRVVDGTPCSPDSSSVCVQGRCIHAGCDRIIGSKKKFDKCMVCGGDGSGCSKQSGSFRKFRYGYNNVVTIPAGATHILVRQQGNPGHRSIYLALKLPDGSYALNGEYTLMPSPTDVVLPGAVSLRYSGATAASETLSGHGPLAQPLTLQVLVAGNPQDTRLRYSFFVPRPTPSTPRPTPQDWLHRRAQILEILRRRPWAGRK
Structure (SMILES),IC50 (human ADAMTS4 [1]) [nM],IC50 (human TACE) [nM],IC50 (human ADAMTS-5 [2]) [nM],IC50 (human ADAMTS6) [nM],IC50 (rnADAMTS-5 (1-564-6H)) [nM],IC50 (human ADAMTS4 [3]; [7]) [nM],IC50 (human MMP13 [4]) [nM],IC50 (human ADAMTS-5 [5]) [nM],IC50 (human ADAMTS4 [3]) [nM],IC50 (human MMP14) [nM],IC50 (human MMP13 [6]) [nM]
"COc1cccc(N2CCN(C(=O)CCC3(C)NC(=O)NC3=O)CC2)c1 (stereo not drawn) [Cpd 1, 5-[3-[4-(3-methoxyphenyl)piperazin-1-yl]-3-oxo-propyl]-5-methyl-imidazolidine-2,4-dione]",> 100,> 100,> 100,> 100,–,–,–,–,–,–,–
"COc1cccc(N2CCN(C(=O)CCC3(C4CC4)NC(=O)NC3=O)CC2)c1 (stereo not drawn) [Cpd 2, 5-cyclopropyl-5-[3-[4-(3-methoxyphenyl)piperazin-1-yl]-3-oxo-propyl]imidazolidine-2,4-dione]",25 to 50,> 100,> 100,> 100,> 100,–,–,–,–,–,–
"COc1cc(N2CCN(C(=O)CCC3(C)NC(=O)NC3=O)CC2)cc(F)c1F (stereo not drawn) [Cpd 14, 5-[3-[4-(3,4-difluoro-5-methoxy-phenyl)piperazin-1-yl]-3-oxo-propyl]-5-methyl-imidazolidine-2,4-dione]",–,> 100,> 100,25 to 50,> 100,> 100,> 100,> 100,–,–,–
"COc1cc(F)cc(N2CCN(C(=O)CCC3(C4CC4)NC(=O)NC3=O)CC2)c1 (stereo not drawn) [Cpd 15, 5-cyclopropyl-5-[3-[4-(3-fluoro-5-methoxy-phenyl)piperazin-1-yl]-3-oxo-propyl]imidazolidine-2,4-dione]",–,> 100,50 to 100,> 100,50 to 100,–,> 100,50 to 100,50 to 100,–,–
"COc1cc(N2CCN(C(=O)CCC3(C4CC4)NC(=O)NC3=O)CC2)ccc1F (stereo not drawn) [Cpd 17, 5-cyclopropyl-5-[3-[4-(4-fluoro-3-methoxy-phenyl)piperazin-1-yl]-3-oxo-propyl]imidazolidine-2,4-dione]",–,> 100,> 100,> 100,> 100,> 100,> 100,> 100,–,–,–
"COc1cc(N2CCN(C(=O)CCC3(C4CC4)NC(=O)NC3=O)CC2)cc(F)c1F (stereo not drawn) [Cpd 18, 5-cyclopropyl-5-[3-[4-(3,4-difluoro-5-methoxy-phenyl)piperazin-1-yl]-3-oxo-propyl]imidazolidine-2,4-dione]",–,> 100,50 to 100,0.001 to 25,> 100,> 100,> 100,50 to 100,–,> 100,> 100
